In PMC11855478, “Bicyclic N,S-Acetals Containing Fused Cysteine-Amide System as New Heterocyclic Class Targeting Human Farnesyltransferase (FTase-h)” (International Journal of Molecular Sciences, 2025):

How the values were obtained:
HT29 (Colon Cancer) = experiment: NCI one dose, HT29; assay type: cell-based, human; conditions: HT29, 1.00E-5 Molar one dose
How it was run: (§1)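 NCI60 human tumour panel; 48 h drug exposure; SRB read-out.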

SN12C (Renal Cancer) = experiment: NCI one dose, SN12C; assay type: cell-based, human; conditions: 1.00E-5 Molar one dose
How it was run: as §1

OVCAR-3 (Ovarian Cancer) = experiment: NCI one dose, OVCAR-3; assay type: cell-based, human; conditions: OVCAR-3, 1.00E-5 Molar one dose
How it was run: as §1

A498 (Renal Cancer) = experiment: NCI one dose, A498; assay type: cell-based, human; conditions: A498, 1.00E-5 Molar one dose
How it was run: as §1

SK-MEL-5 (Melanoma) = experiment: NCI one dose, SK-MEL-5; assay type: cell-based, human; conditions: SK-MEL-5, 1.00E-5 Molar one dose
How it was run: as §1

RPMI-8226 (Leukemia) = experiment: NCI one dose, RPMI-8226; assay type: cell-based, human; conditions: RPMI-8226, 1.00E-5 Molar one dose
How it was run: as §1

[1] = system: A549/ATCC (Non-Small Cell Lung Cancer); experiment: NCI one dose, A549/ATCC; assay type: cell-based, human; conditions: 1.00E-5 Molar one dose
How it was run: as §1

MCF7 (Breast Cancer) = experiment: NCI one dose, MCF7; assay type: cell-based, human; conditions: MCF7, 1.00E-5 Molar one dose
How it was run: as §1

HS 578T (Breast Cancer) = experiment: NCI one dose, HS 578T; assay type: cell-based, human; conditions: 1.00E-5 Molar one dose
How it was run: as §1

[2] = system: NCI/ADR-RES (Ovarian Cancer); experiment: NCI one dose, NCI/ADR-RES; assay type: cell-based, human; conditions: 1.00E-5 Molar one dose
How it was run: as §1

SF-539 (CNS Cancer) = experiment: NCI one dose, SF-539; assay type: cell-based, human; conditions: SF-539, 1.00E-5 Molar one dose
How it was run: as §1

[3] = system: NCI-H460 (Non-Small Cell Lung Cancer); experiment: NCI one dose, NCI-H460; assay type: cell-based, human; conditions: NCI-H460, 1.00E-5 Molar one dose
Procedure: (§2) 3.4. Cell Proliferation Assay
(§3) Selected compounds were tested on a panel of 60 human cancer cell lines at the National Cancer Institute (NCI), Germantown, MD, USA. The cytotoxicity studies were conducted using a 48 h exposure protocol using the sulfo-rhodamine B assay.

786-0 (Renal Cancer) = experiment: NCI one dose, 786-0; assay type: cell-based, human; conditions: 786-0, 1.00E-5 Molar one dose
How it was run: as §1

SNB-75 (CNS Cancer) = experiment: NCI one dose, SNB-75; assay type: cell-based, human; conditions: SNB-75, 1.00E-5 Molar one dose
How it was run: as §1

UACC-257 melanoma cells = experiment: NCI one dose, UACC-257; assay type: cell-based, human; conditions: UACC-257, 1.00E-5 Molar one dose
How it was run: as §1

HCC-2998 (Colon Cancer) = experiment: NCI one dose, HCC-2998; assay type: cell-based, human; conditions: HCC-2998, 1.00E-5 Molar one dose
How it was run: as §1

SF-295 (CNS Cancer) = experiment: NCI one dose, SF-295; assay type: cell-based, human; conditions: SF-295, 1.00E-5 Molar one dose
How it was run: (§4)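 An SRB-based cytotoxicity protocol was used, with 48 h treatment of the 60 human tumour lines screened at the National Cancer Institute.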

HCT-15 (Colon Cancer) = experiment: NCI one dose, HCT-15; assay type: cell-based, human; conditions: HCT-15, 1.00E-5 Molar one dose
How it was run: as §1

TK-10 (Renal Cancer) = experiment: NCI one dose, TK-10; assay type: cell-based, human; conditions: TK-10, 1.00E-5 Molar one dose
How it was run: as §1

T-47D (Breast Cancer) = experiment: NCI one dose, T-47D; assay type: cell-based, human; conditions: 1.00E-5 Molar one dose
Procedure: as §2, §3

IGROV1 (Ovarian Cancer) = experiment: NCI one dose, IGROV1; assay type: cell-based, human; conditions: IGROV1, 1.00E-5 Molar one dose
How it was run: as §1

M14 (Melanoma) = experiment: NCI one dose, M14; assay type: cell-based, human; conditions: M14, 1.00E-5 Molar one dose
How it was run: as §1

OVCAR-4 (Ovarian Cancer) = experiment: NCI one dose, OVCAR-4; assay type: cell-based, human; conditions: OVCAR-4, 1.00E-5 Molar one dose
How it was run: as §1

SK-OV-3 (Ovarian Cancer) = experiment: NCI one dose, SK-OV-3; assay type: cell-based, human; conditions: SK-OV-3, 1.00E-5 Molar one dose
How it was run: as §1

[4] = system: NCI-H322M (Non-Small Cell Lung Cancer); experiment: NCI one dose, NCI-H322M; assay type: cell-based, human; conditions: 1.00E-5 Molar one dose
How it was run: as §1

OVCAR-8 (Ovarian Cancer) = experiment: NCI one dose, OVCAR-8; assay type: cell-based, human; conditions: OVCAR-8, 1.00E-5 Molar one dose
How it was run: as §4

[5] = system: MDA-MB-231/ATCC (Breast Cancer); experiment: NCI one dose, MDA-MB-231/ATCC; assay type: cell-based, human; conditions: 1.00E-5 Molar one dose
How it was run: as §1

COLO 205 (Colon Cancer) = experiment: NCI one dose, COLO 205; assay type: cell-based, human; conditions: COLO 205, 1.00E-5 Molar one dose
Procedure: as §2, §3

SW-620 (Colon Cancer) = experiment: NCI one dose, SW-620; assay type: cell-based, human; conditions: SW-620, 1.00E-5 Molar one dose
How it was run: as §1

[6] = system: MDA-MB-468 breast cancer cells; experiment: NCI one dose, MDA-MB-468; assay type: cell-based, human; conditions: MDA-MB-468, 1.00E-5 Molar one dose
How it was run: as §1

[7] = system: panel of 60 human cancer cell lines; experiment: NCI 60 cell panel one dose screen (whole panel); assay type: cell-based; design: Delta (One Dose Mean Graph): unit not given here; conditions: 1.00E-5 Molar one dose; for Range (One Dose Mean Graph): in % (unit assumed); for Mean Growth Percent: mean over tested cell lines
How it was run: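 Sulforhodamine B read-out after 48 h treatment at one high dose (10 µM), run on the full 60-line NCI human tumour cell panel.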

SK-MEL-28 (Melanoma) = experiment: NCI one dose, SK-MEL-28; assay type: cell-based, human; conditions: SK-MEL-28, 1.00E-5 Molar one dose
How it was run: as §1

| SMILES | Growth Percent (HT29 (Colon Cancer)) | Growth Percent (SN12C (Renal Cancer)) | Growth Percent (OVCAR-3 (Ovarian Cancer)) | Growth Percent (A498 (Renal Cancer)) | Growth Percent (SK-MEL-5 (Melanoma)) | Growth Percent (RPMI-8226 (Leukemia)) | Growth Percent [1] | Growth Percent (MCF7 (Breast Cancer)) | Growth Percent (HS 578T (Breast Cancer)) | Growth Percent [2] | Growth Percent (SF-539 (CNS Cancer)) | Growth Percent [3] | Growth Percent (786-0 (Renal Cancer)) | Growth Percent (SNB-75 (CNS Cancer)) | Growth Percent (UACC-257 melanoma cells) | Growth Percent (HCC-2998 (Colon Cancer)) | Growth Percent (SF-295 (CNS Cancer)) | Growth Percent (HCT-15 (Colon Cancer)) | Growth Percent (TK-10 (Renal Cancer)) | Growth Percent (T-47D (Breast Cancer)) | also measured |
| --- | --- | --- | --- | --- | --- | --- | --- | --- | --- | --- | --- | --- | --- | --- | --- | --- | --- | --- | --- | --- | --- |
| C[C@@]12SC[C@@H](C(=O)NCc3ccccc3)N1C(=O)c1ccccc12 [4bA] | 80.95% | 95.20% | 119.90% | 91.48% | 102.19% | 104.44% | 78.86% | 96.64% | 100.47% | 98.79% | 95.44% | 111.12% | 101.14% | 88.09% | 79.51% | 113.03% | 98.04% | 98.84% | 85.29% | 90.12% | Growth Percent (IGROV1 (Ovarian Cancer)): 105.63%; Growth Percent (M14 (Melanoma)): 101.98%; Growth Percent (OVCAR-4 (Ovarian Cancer)): 102.82%; Growth Percent (SK-OV-3 (Ovarian Cancer)): 102.08%; Growth Percent [4]: 96.63%; Growth Percent (OVCAR-8 (Ovarian Cancer)): 90.77%; Growth Percent [5]: 99.53%; Growth Percent (COLO 205 (Colon Cancer)): 108.00%; Growth Percent (SW-620 (Colon Cancer)): 108.38%; Growth Percent [6]: 99.04%; Delta (One Dose Mean Graph) [7]: 22.99; Range (One Dose Mean Graph) [7]: 45.00; Mean Growth Percent [7]: 97.89%; Growth Percent (SK-MEL-28 (Melanoma)): 105.22% |
| C[C@@]12SC[C@@H](C(=O)NCc3cccc(C(F)(F)F)c3)N1C(=O)c1ccccc12 [4bD] | 78.21% | 93.35% | 109.46% | 85.48% | 101.35% | 85.05% | 77.57% | 85.93% | 96.99% | 100.57% | 99.59% | 109.48% | 100.40% | 93.18% | 74.68% | 110.65% | 92.24% | 95.74% | 101.65% | 89.18% | Growth Percent (IGROV1 (Ovarian Cancer)): 99.72%; Growth Percent (M14 (Melanoma)): 103.59%; Growth Percent (OVCAR-4 (Ovarian Cancer)): 89.60%; Growth Percent (SK-OV-3 (Ovarian Cancer)): 97.14%; Growth Percent [4]: 100.14%; Growth Percent (OVCAR-8 (Ovarian Cancer)): 92.35%; Growth Percent [5]: 97.63%; Growth Percent (COLO 205 (Colon Cancer)): 104.27%; Growth Percent (SW-620 (Colon Cancer)): 108.66%; Growth Percent [6]: 97.93%; Delta (One Dose Mean Graph) [7]: 25.48; Range (One Dose Mean Graph) [7]: 41.72; Mean Growth Percent [7]: 94.41%; Growth Percent (SK-MEL-28 (Melanoma)): 108.59% |
| COc1ccccc1CNC(=O)[C@@H]1CS[C@H]2c3ccccc3C(=O)N12 [4aG] | 77.01% | 110.50% | 109.74% | 84.76% | 103.84% | 102.98% | 78.79% | 102.38% | 96.02% | 105.58% | 103.40% | 110.17% | 107.93% | 98.49% | 74.73% | 120.86% | 100.33% | 107.09% | 90.98% | 98.98% | Growth Percent (IGROV1 (Ovarian Cancer)): 109.59%; Growth Percent (M14 (Melanoma)): 104.36%; Growth Percent (OVCAR-4 (Ovarian Cancer)): 106.91%; Growth Percent (SK-OV-3 (Ovarian Cancer)): 107.78%; Growth Percent [4]: 100.55%; Growth Percent (OVCAR-8 (Ovarian Cancer)): 96.60%; Growth Percent [5]: 109.17%; Growth Percent (COLO 205 (Colon Cancer)): 111.29%; Growth Percent (SW-620 (Colon Cancer)): 105.78%; Growth Percent [6]: 101.62%; Delta (One Dose Mean Graph) [7]: 31.67; Range (One Dose Mean Graph) [7]: 50.93; Mean Growth Percent [7]: 101.60%; Growth Percent (SK-MEL-28 (Melanoma)): 116.98% |
| C[C@@]12SC[C@@H](C(=O)NCc3ccc(Cl)cc3Cl)N1C(=O)c1ccccc12 [4bH] | 83.74% | 97.63% | 101.07% | 77.10% | 92.84% | 86.31% | 77.42% | 89.35% | 91.90% | 96.56% | 100.42% | 104.39% | 103.58% | 99.75% | 79.49% | 99.28% | 98.60% | 105.31% | 105.53% | 79.65% | Growth Percent (IGROV1 (Ovarian Cancer)): 100.21%; Growth Percent (M14 (Melanoma)): 108.31%; Growth Percent (OVCAR-4 (Ovarian Cancer)): 93.22%; Growth Percent (SK-OV-3 (Ovarian Cancer)): 99.25%; Growth Percent [4]: 92.74%; Growth Percent (OVCAR-8 (Ovarian Cancer)): 93.06%; Growth Percent [5]: 99.81%; Growth Percent (COLO 205 (Colon Cancer)): 109.32%; Growth Percent (SW-620 (Colon Cancer)): 104.06%; Growth Percent [6]: 88.80%; Delta (One Dose Mean Graph) [7]: 23.83; Range (One Dose Mean Graph) [7]: 40.77; Mean Growth Percent [7]: 95.56%; Growth Percent (SK-MEL-28 (Melanoma)): 108.92% |
| COc1cccc(CNC(=O)[C@@H]2CS[C@@]3(C)c4ccccc4C(=O)N23)c1 [4bE] | 89.19% | 101.62% | 115.54% | 85.49% | 101.12% | 95.74% | 76.25% | 89.13% | 95.18% | 98.88% | 104.59% | 104.83% | 105.14% | 98.09% | 81.73% | 107.01% | 97.61% | 102.87% | 95.45% | 96.67% | Growth Percent (IGROV1 (Ovarian Cancer)): 107.98%; Growth Percent (M14 (Melanoma)): 104.58%; Growth Percent (OVCAR-4 (Ovarian Cancer)): 94.52%; Growth Percent (SK-OV-3 (Ovarian Cancer)): 101.46%; Growth Percent [4]: 102.58%; Growth Percent (OVCAR-8 (Ovarian Cancer)): 90.08%; Growth Percent [5]: 105.57%; Growth Percent (COLO 205 (Colon Cancer)): 115.50%; Growth Percent (SW-620 (Colon Cancer)): 104.85%; Growth Percent [6]: 93.38%; Delta (One Dose Mean Graph) [7]: 31.41; Range (One Dose Mean Graph) [7]: 48.09; Mean Growth Percent [7]: 98.86%; Growth Percent (SK-MEL-28 (Melanoma)): 112.92% |
